Laboratory results taken from ChEMBL document CHEMBL1146205, “Isatin sulfonamide analogs containing a Michael addition acceptor: a new class of caspase 3/7 inhibitors” (J Med Chem, 2007).

Key:
Caspase-6 = biological target: T1, Caspase-6 (Homo sapiens, UniProt P55212); assay: Inhibition of human recombinant caspase 6
T1 sequence (P55212 whole entry): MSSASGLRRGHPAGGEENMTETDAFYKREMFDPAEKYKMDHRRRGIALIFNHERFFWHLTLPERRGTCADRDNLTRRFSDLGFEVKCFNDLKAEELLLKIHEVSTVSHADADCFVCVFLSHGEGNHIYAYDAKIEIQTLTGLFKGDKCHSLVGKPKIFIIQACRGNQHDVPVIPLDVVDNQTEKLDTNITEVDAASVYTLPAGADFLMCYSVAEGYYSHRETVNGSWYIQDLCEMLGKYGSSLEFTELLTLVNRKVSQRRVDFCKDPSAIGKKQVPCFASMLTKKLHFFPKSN

Caspase-1 = biological target: T2, Caspase-1 (Homo sapiens, UniProt P29466); assay: Inhibition of human recombinant caspase 1
T2 sequence (P29466 whole entry): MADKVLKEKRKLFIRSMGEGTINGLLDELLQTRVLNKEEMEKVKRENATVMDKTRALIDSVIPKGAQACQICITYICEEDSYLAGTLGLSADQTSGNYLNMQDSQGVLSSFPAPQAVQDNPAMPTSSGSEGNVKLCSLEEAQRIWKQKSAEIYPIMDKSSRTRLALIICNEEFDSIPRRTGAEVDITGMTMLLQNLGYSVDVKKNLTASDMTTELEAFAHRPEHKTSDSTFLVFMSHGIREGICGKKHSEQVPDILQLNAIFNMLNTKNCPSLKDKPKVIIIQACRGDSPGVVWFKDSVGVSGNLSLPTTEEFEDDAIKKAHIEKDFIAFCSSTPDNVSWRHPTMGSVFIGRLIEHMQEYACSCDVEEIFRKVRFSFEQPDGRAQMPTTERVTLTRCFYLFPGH

Caspase-8 = Caspase-8 (Homo sapiens, UniProt Q14790); assay: Inhibition of human recombinant caspase 8
Caspase-7 = biological target: T3, Caspase-7 (Homo sapiens, UniProt P55210); assay: Inhibition of human recombinant caspase 7
T3 sequence (P55210 whole entry): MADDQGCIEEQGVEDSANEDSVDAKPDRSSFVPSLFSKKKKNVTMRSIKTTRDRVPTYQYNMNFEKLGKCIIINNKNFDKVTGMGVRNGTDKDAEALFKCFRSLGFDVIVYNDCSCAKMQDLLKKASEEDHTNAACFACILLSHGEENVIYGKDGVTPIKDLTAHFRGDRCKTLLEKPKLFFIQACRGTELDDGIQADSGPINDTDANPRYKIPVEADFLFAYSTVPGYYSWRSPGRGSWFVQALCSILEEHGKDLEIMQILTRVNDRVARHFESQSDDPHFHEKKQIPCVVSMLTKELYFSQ

Caspase-3 = biological target: T4, Caspase-3 (Homo sapiens, UniProt P42574); assay: Inhibition of human recombinant caspase 3
T4 sequence (P42574 whole entry): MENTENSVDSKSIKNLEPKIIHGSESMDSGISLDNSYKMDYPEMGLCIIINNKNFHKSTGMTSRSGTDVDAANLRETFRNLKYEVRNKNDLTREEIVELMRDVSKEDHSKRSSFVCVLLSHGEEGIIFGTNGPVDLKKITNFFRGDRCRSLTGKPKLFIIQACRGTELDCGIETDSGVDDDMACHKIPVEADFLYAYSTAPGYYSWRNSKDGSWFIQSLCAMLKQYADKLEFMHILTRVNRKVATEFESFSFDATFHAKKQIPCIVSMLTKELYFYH

[1] = Partition coefficient of the compound, log P; format: physicochemical; conditions: octanol/water

Sequence of Caspase-8 (Q14790 217-374 limits assumed): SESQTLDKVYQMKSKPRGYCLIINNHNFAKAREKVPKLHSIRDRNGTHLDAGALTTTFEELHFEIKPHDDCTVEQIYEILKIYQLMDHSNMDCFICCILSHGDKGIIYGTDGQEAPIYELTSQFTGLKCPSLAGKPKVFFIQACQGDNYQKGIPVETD
Sequence of Caspase-8 (Q14790 385-479 limits assumed): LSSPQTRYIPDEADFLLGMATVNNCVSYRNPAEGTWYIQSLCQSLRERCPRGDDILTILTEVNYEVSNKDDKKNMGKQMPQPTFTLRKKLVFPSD

Q: Which IC50 (Caspase-6) does the source give for `O=C1C(=O)N(Cc2ccc(Br)cc2)c2ccc(S(=O)(=O)N3CCC[C@H]3COc3ccccc3)cc21` here?
A: 8900 nM

Q: What about the IC50 (Caspase-1) of the same compound?
A: > 15000 nM

Q: And the IC50 (Caspase-8)?
A: > 50000 nM

Q: What about the IC50 (Caspase-7) of the same compound?
A: 34.8 nM

Q: And the IC50 (Caspase-3)?
A: 9.85 nM

Q: What about the logP [1] of the same compound?
A: 4.82

Q: With `N#CC(C#N)=C1C(=O)N(Cc2ccc(Br)cc2)c2ccc(S(=O)(=O)N3CCC[C@H]3COc3ccccc3)cc21` as the compound, how does the IC50 (Caspase-6) read?
A: 840 nM

Q: And the IC50 (Caspase-1)?
A: 5700 nM

Q: What about the IC50 (Caspase-8) of the same compound?
A: > 50000 nM

Q: What about the IC50 (Caspase-7) of the same compound?
A: 92.2 nM

Q: What about the IC50 (Caspase-3) of the same compound?
A: 20.1 nM

Q: What about the logP [1] of the same compound?
A: 4.28

Q: What does the source list for `CN1C(=O)C(=C(C#N)C#N)c2cc(S(=O)(=O)N3CCC[C@H]3COc3ccccc3)ccc21`?
A: IC50 (Caspase-6): 698 nM; IC50 (Caspase-1): 2830 nM; IC50 (Caspase-8): > 50000 nM; IC50 (Caspase-7): 785 nM; IC50 (Caspase-3): 119 nM; logP [1]: 1.71

Q: With `N#CC(C#N)=C1C(=O)N(Cc2ccc(O)cc2)c2ccc(S(=O)(=O)N3CCC[C@H]3COc3ccccc3)cc21` as the compound, how does the IC50 (Caspase-6) read?
A: 744 nM

Q: What about the IC50 (Caspase-1) of the same compound?
A: 2300 nM

Q: What about the IC50 (Caspase-8) of the same compound?
A: > 50000 nM

Q: What about the IC50 (Caspase-7) of the same compound?
A: 126 nM

Q: And the IC50 (Caspase-3)?
A: 31.8 nM

Q: And the logP [1]?
A: 2.77

Q: Which IC50 (Caspase-6) does the source give for `N#CC(C#N)=C1C(=O)N(Cc2ccccc2)c2ccc(S(=O)(=O)N3CCC[C@H]3COc3cccnc3)cc21` here?
A: 823 nM

Q: What about the IC50 (Caspase-1) of the same compound?
A: 3250 nM

Q: What about the IC50 (Caspase-8) of the same compound?
A: > 50000 nM

Q: What about the IC50 (Caspase-7) of the same compound?
A: 32.8 nM

Q: What about the IC50 (Caspase-3) of the same compound?
A: 7.6 nM

Q: What about the logP [1] of the same compound?
A: 2.45

Q: What does the source list for `N#CC(C#N)=C1C(=O)N(Cc2ccc(Br)cc2)c2ccc(S(=O)(=O)N3CCC[C@H]3COc3cccnc3)cc21`?
A: IC50 (Caspase-6): 515 nM; IC50 (Caspase-1): 3400 nM; IC50 (Caspase-8): > 50000 nM; IC50 (Caspase-7): 26.3 nM; IC50 (Caspase-3): 5.1 nM; logP [1]: 3.22

Q: With `O=C1C(=O)N(Cc2ccc(OCCF)cc2)c2ccc(S(=O)(=O)N3CCC[C@H]3COc3ccccc3)cc21` as the compound, how does the logP [1] read?
A: 4.19

Q: Which results are given for `N#CC(C#N)=C1C(=O)N(Cc2ccc(O)cc2)c2ccc(S(=O)(=O)N3CCC[C@H]3COc3cccnc3)cc21`?
A: IC50 (Caspase-6): 650 nM; IC50 (Caspase-1): 2720 nM; IC50 (Caspase-8): > 50000 nM; IC50 (Caspase-7): 28.3 nM; IC50 (Caspase-3): 7.8 nM; logP [1]: 1.77

Q: For `O=C1C(=O)N(Cc2ccc(Br)cc2)c2ccc(S(=O)(=O)N3CCC[C@H]3COc3cccnc3)cc21`, which IC50 (Caspase-6) is on record?
A: 5030 nM

Q: And the IC50 (Caspase-1)?
A: > 15000 nM

Q: And the IC50 (Caspase-8)?
A: > 50000 nM

Q: What about the IC50 (Caspase-7) of the same compound?
A: 6.6 nM

Q: What about the IC50 (Caspase-3) of the same compound?
A: 3.6 nM

Q: And the logP [1]?
A: 3.76

Q: With `O=C1C(=O)N(Cc2ccc(O)cc2)c2ccc(S(=O)(=O)N3CCC[C@H]3COc3cccnc3)cc21` as the compound, how does the IC50 (Caspase-6) read?
A: 9550 nM

Q: What about the IC50 (Caspase-1) of the same compound?
A: > 15000 nM

Q: What about the IC50 (Caspase-8) of the same compound?
A: > 50000 nM

Q: What about the IC50 (Caspase-7) of the same compound?
A: 11.7 nM

Q: What about the IC50 (Caspase-3) of the same compound?
A: 3.9 nM

Q: And the logP [1]?
A: 2.25

Q: With `N#CC(C#N)=C1C(=O)Nc2ccc(S(=O)(=O)N3CCC[C@H]3COc3ccccc3)cc21` as the compound, how does the IC50 (Caspase-6) read?
A: 407 nM

Q: And the IC50 (Caspase-1)?
A: 1830 nM

Q: What about the IC50 (Caspase-8) of the same compound?
A: > 50000 nM

Q: What about the IC50 (Caspase-7) of the same compound?
A: 1590 nM

Q: What about the IC50 (Caspase-3) of the same compound?
A: 272 nM

Q: What about the logP [1] of the same compound?
A: 1.07

Q: Which IC50 (Caspase-6) does the source give for `COc1ccc(CN2C(=O)C(=C(C#N)C#N)c3cc(S(=O)(=O)N4CCC[C@H]4COc4cccnc4)ccc32)cc1` here?
A: 610 nM

Q: What about the IC50 (Caspase-1) of the same compound?
A: 3900 nM

Q: What about the IC50 (Caspase-8) of the same compound?
A: > 50000 nM

Q: And the IC50 (Caspase-7)?
A: 29.6 nM

Q: What about the IC50 (Caspase-3) of the same compound?
A: 7.8 nM

Q: And the logP [1]?
A: 2.36

Q: For `N#CC(C#N)=C1C(=O)N(Cc2ccccc2)c2ccc(S(=O)(=O)N3CCC[C@H]3COc3ccccc3)cc21`, which IC50 (Caspase-6) is on record?
A: 918 nM

Q: And the IC50 (Caspase-1)?
A: 6220 nM

Q: What about the IC50 (Caspase-8) of the same compound?
A: > 50000 nM

Q: What about the IC50 (Caspase-7) of the same compound?
A: 51.7 nM

Q: What about the IC50 (Caspase-3) of the same compound?
A: 27.8 nM

Q: And the logP [1]?
A: 3.5
